These results are taken from patent publication US5266463A, “Highly sensitive assay method for L-carnitine and composition for practicing same” (Asahi Kasei Kogyo Kabushiki Kaisha, priority 1990, dated 1993).

Where “and” joins values, the source holds several entries; their conditions need not be identical. Identical values can stand only once. Like-named read-outs stand apart in the source and are kept apart here.

The assay relates to L-carnitine dehydrogenase (EC 1.1.1.108) produced by Alcaligenes sp. No. 981 FERM BP-2570. Kind of assay: Km-value determination of L-carnitine dehydrogenase (diaphorase/NBT coupled reaction). It counts as biochemical. The text has this:
The L-carnitine dehydrogenase used in the composition for assay of L-carnitine according to the present invention can be an enzyme having reactivity on a substrate of L-carnitine together with a suitable coenzyme NAD or thio-NAD. Its suitability can be confirmed by using the said coenzyme and substrate. L-carnitine dehydrogenase produced by Alcaligenes sp. No. 981 (product of Toyo Jozo Co.) has a relative activity of approx. 15% when coenzyme thio-NAD is used, as compared to use of NAD.
Km-value for NAD is measured in various concentrations of NAD^* in a reaction mixture of:
100 mM Tris-HCl buffer (pH 9.0)
5U diaphorase (Toyo Jozo Co.)
0.025% NBT (Wako Pure Chem. Co.)
1% polyoxyethylene (20) sorbitan monooleate (80) (Wako Pure Chem. Co.) and
In the reaction mixture, 50 mM L-carnitine is replaced by 1 mM NAD , and the concentration of L-carnitine is varied to measure the Km-value of L-carnitine.
The results are as shown above.

Usually Km stands for the substrate concentration at which the rate is half of its maximum. For the molecule `NC(=O)c1ccc[n+]([C@@H]2O[C@H](COP(=O)([O-])OP(=O)(O)OC[C@H]3O[C@@H](n4cnc5c(N)ncnc54)[C@H](O)[C@@H]3O)[C@@H](O)[C@H]2O)c1` [NAD, nicotinamide adenine dinucleotide], the Michaelis constant (Km) (NAD concentration varied, 50 mM L-carnitine, 100 mM Tris-HCl buffer (pH 9.0), diaphorase, NBT, read-out: Km-value (NAD)) was 140 µM and 141 µM.
Consider `C[N+](C)(C)C[C@H](O)CC(=O)[O-]` [L-carnitine], for which the Km (L-carnitine concentration varied, 1 mM NAD, 100 mM Tris-HCl buffer (pH 9.0), diaphorase, NBT, read-out: Km-value (L-carnitine)) came out at 9300 µM.
In the case of `NC(=S)c1ccc[n+]([C@@H]2O[C@H](COP(=O)([O-])OP(=O)(O)OC[C@H]3O[C@@H](n4cnc5c(N)ncnc54)[C@H](O)[C@@H]3O)[C@@H](O)[C@H]2O)c1` [thio-NAD, thionicotinamide adenine dinucleotide], where the note is “coenzyme thio-NAD, under the same conditions as NAD, read-out: Km-value (thio-NAD)”, the Michaelis-Menten constant (Km) came to 400 µM.
